Test results: US11225469B2, “Inhibitors of phosphoglycerate dehydrogenase (PHGDH) and uses thereof” (Whitehead Institute for Biomedical Research, priority 2015, dated 2022)

Target: PHGDH (Homo sapiens (Human), UniProt O43175)
Assay: PHGDH inhibition, coupled assay with PSAT1/PSPH and diaphorase/resazurin readout
Assay type: biochemical
Conditions: Table E9; mixture with PSAT1, PSPH; diaphorase/resazurin reporter
Procedure: Compounds of the invention were assayed for inhibition of the activity phosphoglycerate dehydrogenase (PHGDH). The compounds were assayed in a mixture comprising PHGDH, PSAT1, PSPH, NADH, and glutamate. Diaphorase and resazurin were used as a fluorescent reporter system.
In this endogenous pathway coupled assay, the production of NADH by PHGDH was measured through the diaphorasemediated reduction of resazurin (See, e.g., Chakraborty, S., Sakka, M., Kimura, T. & Sakka, K. “Characterization of a dihydrolipoyl dehydrogenase having diaphorase activity of Clostridium kluyveri.” BioscL Biotechnol. Biochem. 72, 982-988 (2008)).
PHGDH assay buffer contained 50 mM TEA pH 8.0, 10 mM MgCl2, 0.05% BSA, and 0.01% Tween-20. PHGDH enzyme buffer consisted of assay buffer with 20 nM PHGDH and 0.2 mg/mL diaphorase. PHGDH substrate buffer contained 0.3 mM NAD 1.25 mM glutamate, 0.1 mM 3-phosphoglycerate, 0.2 mM resazurin, 1 μM PSAT1, and 1 μM PSPH. qHTS was performed in 1536-well plates dispensed with a BioRAPTR FRD. Each well contained equal volumes of substrate buffer and assay buffer. Plates were read at 0 minutes and 20 minutes at room temperature with a ViewLux uHTS Microplate Imager (PerkinElmer). Follow-up assays were performed in black 384-well plates (Greiner) in 20 μL of enzyme buffer to which compounds were added in dose-response with an HP D300 digital dispenser (Hewlett-Packard), followed by addition of 20 μL of substrate buffer. Plates were incubated at room temperature (25° C.) and read at 0 and 20 minutes with a Spectramax M5 plate reader (Molecular Devices) in fluorescence intensity mode with a λex=550 nm and λem=600 nm (emission cutoff=590 nm).

PHGDH, sequence (O43175 whole entry): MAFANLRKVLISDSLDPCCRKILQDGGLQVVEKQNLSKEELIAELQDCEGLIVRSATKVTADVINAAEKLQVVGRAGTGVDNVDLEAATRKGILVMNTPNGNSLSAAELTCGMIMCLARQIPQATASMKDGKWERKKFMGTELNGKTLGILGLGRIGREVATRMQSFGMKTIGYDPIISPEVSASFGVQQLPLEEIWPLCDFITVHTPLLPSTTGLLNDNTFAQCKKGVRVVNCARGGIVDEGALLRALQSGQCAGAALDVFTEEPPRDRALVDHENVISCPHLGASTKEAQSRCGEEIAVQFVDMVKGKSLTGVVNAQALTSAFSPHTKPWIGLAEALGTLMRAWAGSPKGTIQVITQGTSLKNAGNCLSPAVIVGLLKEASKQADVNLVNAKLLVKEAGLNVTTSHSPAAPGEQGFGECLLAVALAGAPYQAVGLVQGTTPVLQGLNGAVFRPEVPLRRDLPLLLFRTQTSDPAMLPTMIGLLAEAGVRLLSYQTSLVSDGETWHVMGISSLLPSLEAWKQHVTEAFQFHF

IC50 | SMILES
< 5 µM | COc1cccc(NC(=S)N2CCN(c3cc(C(F)(F)F)cc(C(F)(F)F)c3)CC2)n1 [Compound 188]
≥ 20 µM | COc1cccc(NC(=S)N2CCN(c3ccc(Cl)c(Cl)c3)CC2)n1 [Compound 191]
< 5 µM | COc1cccc(NC(=S)N2CCN(c3ncc(C(F)(F)F)cc3Cl)CC2)n1 [Compound 195]
10 to 20 µM | COc1ccccc1CN1CCN(C(=S)Nc2cc(C)cc(C)n2)CC1 [Compound 286]
≥ 20 µM | Cc1ccnc(NC(=S)N2CCN(c3ccc(N)cc3)CC2)c1 [Compound 17]
≥ 20 µM | CC(=O)N1CCN(C(=S)Nc2cc(C)ccn2)CC1 [Compound 18]
≥ 20 µM | Cc1cc(C)nc(NC(=S)N2CCN(Cc3ccccc3C)CC2)c1 [Compound 276]
5 to 10 µM | Cc1cc(C)nc(NC(=S)N2CCN(c3ccc(C(F)(F)F)cc3[N+](=O)[O-])CC2)c1 [Compound 110]
5 to 10 µM | Cc1cc(C)nc(NC(=S)N2CCN(C(=O)c3cccc(C(F)(F)F)c3)CC2)c1 [Compound 261]
5 to 10 µM | Cc1ccnc(NC(=S)N2CCC(Nc3cccc(C(F)(F)F)c3)CC2)c1 [Compound 56]
10 to 20 µM | Cc1cc(C)nc(NC(=S)N2CCN(c3ccc4cnccc4c3)CC2)c1 [Compound 148]
10 to 20 µM | Cc1cc(C)nc(NC(=S)N2CCN(Cc3ccc(C(F)(F)F)cc3)C(CO)C2)c1 (centres unmarked) [Compound 294]
5 to 10 µM | Cc1cc(C)nc(NC(=S)N2CCN(c3cccc(C(F)(F)F)n3)CC2)c1 [Compound 116]
≥ 20 µM | O=C(Nc1cc2ccccc2cn1)N1CCN(c2cccc(C(F)(F)F)c2)CC1 [Compound 152]
≥ 20 µM | Cc1ccnc(C(=S)N2CCN(c3cccc(C(F)(F)F)c3)CC2)c1 [Compound 62]
≥ 20 µM | COc1ccc(N2CCN(C(=S)Nc3cc(C)ccn3)CC2)cc1 [Compound 12]
10 to 20 µM | COc1cccc(NC(=S)N2CCN(c3cccc(Cl)c3Cl)CC2)n1 [Compound 189]
≥ 20 µM | Cc1cc(C)nc(NC(=S)N2CCN(c3ccc([N+](=O)[O-])c4cccnc34)CC2)c1 [Compound 123]
10 to 20 µM | COc1cccc(CN2CCN(C(=S)Nc3cc(C)cc(C)n3)CC2)c1 [Compound 290]
≥ 20 µM | Cc1ccnc(NC(=S)N2CCc3ccccc3C2)c1 [Compound 51]
≥ 20 µM | Cc1cc(C)nc(NC(=S)N2CCN(Cc3cccc4ccccc34)CC2)c1 [Compound 168]

IC50 | SMILES
5 to 10 µM | Cc1cc(C)nc(NC(=S)N2CCN(c3cccc(OC(F)(F)F)c3)CC2)c1 [Compound 134]
10 to 20 µM | Cc1cc(C)nc(NC(=S)N2CCN(c3coc4ccccc34)CC2)c1 [Compound 86]
≥ 20 µM | Cc1ccnc(NC(=S)N[C@@H]2CCN(c3cccc(C(F)(F)F)c3)C2)c1 [Compound 42]
5 to 10 µM | Cc1ccnc(NC(=S)NCCNc2cccc(C(F)(F)F)c2)c1 [Compound 22]
< 5 µM | Cc1cc(C)nc(NC(=S)N2CCN(Cc3ccc(C(F)(F)F)cc3)C(C)C2)c1 (centres unmarked) [Compound 275]
< 5 µM | Cc1cc(C)nc(NC(=S)N2CCN(c3cc(C(F)(F)F)nc4ccccc34)CC2)c1 [Compound 122]
10 to 20 µM | Cc1cc(C)nc(NC(=S)N2CCN(c3ccc(Cl)c(C(F)(F)F)c3)CC2)c1 [Compound 211]
10 to 20 µM | Cc1ccnc(NC(=S)N2CCN(c3cccc(C(F)(F)F)c3)C[C@@H]2C)c1 [Compound 48]
5 to 10 µM | COc1ccnc(NC(=S)N2CCN(c3ccc(Cl)c(Cl)c3)CC2)c1 [Compound 182]
≥ 20 µM | N=C(NC(=S)N1CCN(c2cccc(C(F)(F)F)c2)CC1)c1ccccn1 [Compound 238]
≥ 20 µM | Cc1cc(C)nc(NC(=S)N2CCN(c3ccc(Cl)c(Cl)c3)CC2)c1 [Compound 92]
10 to 20 µM | Cc1ccnc(NC(=S)NC2CCN(c3cccc(C(F)(F)F)c3)CC2)c1 [Compound 50]
5 to 10 µM | Cc1cc(C)nc(NC(=S)N2CCN(c3ccc(F)c(F)c3)CC2)c1 [Compound 214]
10 to 20 µM | FC(F)(F)c1cccc(N2CCN(C(=S)Nc3nccc4cccnc34)CC2)c1 [Compound 204]
< 5 µM | Cc1cc(C)nc(NC(=S)N2CCN(Cc3ccc(OC(F)(F)F)cc3)CC2)c1 [Compound 296]
≥ 20 µM | Cc1nc(CN(C)c2ncnc3ccc(-c4ccc5[nH]ncc5c4)cc23)cs1 [Compound 222]
≥ 20 µM | Cc1cc(C)nc(NC(=S)N2CCN(c3cccc4nccn34)CC2)c1 [Compound 150]
≥ 20 µM | S=C(Nc1cc(Cl)ccn1)N1CCN(c2ccc(Cl)cc2Cl)CC1 [Compound 199]
≥ 20 µM | Cc1cc(C)nc(NC(=S)N2CCN(c3cc(Cl)c(Cl)cc3Cl)CC2)c1 [Compound 220]
≥ 20 µM | Cc1cc(C)nc(NC(=S)N2CCN(c3ccc(N[S+](C)(=O)[O-])nn3)CC2)c1 [Compound 83]
< 5 µM | FC(F)(F)c1cccc(N2CCN(C(=S)Nc3nc4ccccc4[nH]3)CC2)c1 [Compound 228]

IC50 | SMILES
≥ 20 µM | FC(F)(F)c1cccc(N2CCN(C(=S)Nc3cc[nH]n3)CC2)c1 [Compound 237]
5 to 10 µM | Cc1ccnc(NC(=S)NC2CCCN(c3cccc(C(F)(F)F)c3)C2)c1 (centres unmarked) [Compound 54]
10 to 20 µM | Cc1ccnc(NC(=S)Nc2cccc(C(F)(F)F)c2)c1 [Compound 46]
≥ 20 µM | Cc1ccnc(NC(=S)N2CCN(C)CC2)c1 [Compound 16]
10 to 20 µM | FC(F)(F)c1cnc(N2CCN(C(=S)Nc3cc(Cl)ccn3)CC2)c(Cl)c1 [Compound 202]
10 to 20 µM | Cc1cc(C)nc(NC(=S)N2CCN(C3CCCCC3)CC2)c1 [Compound 253]
≥ 20 µM | CCN1CCN(C(=S)c2ccc(O)cc2)CC1 [Compound 15]
10 to 20 µM | Cc1cc(C)nc(NC(=S)N2CCN(c3ccc(Cl)cc3C(F)(F)F)CC2)c1 [Compound 210]
≥ 20 µM | Cc1cc(C)nc(NC(=S)N2CCN(c3ncnc4sccc34)CC2)c1 [Compound 120]
5 to 10 µM | Cc1cc(C)nc(NC(=S)N2CCN(Cc3ccc(C(F)(F)F)cc3)C(C(=O)O)C2)c1 (centres unmarked) [Compound 295, 4-((4,6-dimethylpyridin-2-yl)carbamothioyl)-1-(4-(trifluoromethyl)benzyl)piperazine-2-carboxylic acid]
5 to 10 µM | COc1cccc(NC(=S)N2CCN(c3cccc(C(F)(F)F)n3)CC2)n1 [Compound 194]
5 to 10 µM | FC(F)(F)c1cccc(N2CCN(C(=S)Nc3ccccn3)CC2)c1 [Compound 35]
5 to 10 µM | Cc1cc(C)nc(NC(=S)N2CCN(c3ccc(Cl)cc3[N+](=O)[O-])CC2)c1 [Compound 218]
5 to 10 µM | Cc1cc(C)nc(NC(=S)N2CCN(Cc3ccc(C(F)(F)F)c(Cl)c3)CC2)c1 [Compound 300]
5 to 10 µM | Cc1ccnc(NC(=S)N2CCN(c3ncc(C(F)(F)F)cc3Cl)CC2)c1 [Compound 176]
< 5 µM | Cc1cc(C)nc(NC(=S)N2CCN(CC3CCCCC3)CC2)c1 [Compound 255]
5 to 10 µM | Cc1cc(C)nc(NC(=S)N2CCN(c3cccc(Cl)c3Cl)CC2)c1 [Compound 93]
10 to 20 µM | Cc1cc(C)nc(NC(=S)N2CCN(c3ccc4occc4c3)CC2)c1 [Compound 164]
< 5 µM | Cc1cc(C)nc(NC(=S)N2CCC(Cc3ccccc3)CC2)c1 [Compound 254]
5 to 10 µM | Cc1cc(C)nc(NC(=S)N2CCN(c3cc(C(F)(F)F)nc4ccc(C(F)(F)F)cc34)CC2)c1 [Compound 158]
